The source made the active and inactive calls. The rule behind the calls is not given here. Non-standard residues stand in square brackets, D forms with d. Residues, ends and D or L forms follow the SMILES beside them. *: point of attachment. X1 = C[C@H](N*)c1nc2cccc(-c3ccccc3)c2[nH]1; Ala(cPent) = N[C@@H](CC1CCCC1)C(=O)O; Pentanoyl(4-Me) = CC(C)CCC(=O)*; Dap(Me) = CNC[C@H](N)C(=O)O
Key:
[1] = system: MOLM-13; assay: Down regulation of HOXA11 gene in human MOLM-13 cells by RNA-sequencing analysis; format: functional, cell-based
[2] = system: MOLM-13; assay: cells; details: Homo sapiens, MOLM-13, 120 h
Description: Anticancer activity against human MOLM-13 cells harbouring MLL-AF9 assessed as inhibition of cell growth treated for 5 days measured by CCK-8 kit method

[3] = system: MOLM-13; assay: Inhibition of methylation of H3K79 in human MOLM-13 cells assessed as inhibition of methylation at HOXA-AS2 gene cluster by chromatin immunoprecipitation assay; format: functional, cell-based
[4] = system: MOLM-13; assay: Down regulation of SKP2 gene in human MOLM-13 cells by RNA-sequencing analysis; format: functional, cell-based
[5] = system: MOLM-13; assay: Induction of apoptosis in human MOLM-13 cells at 0.25 to 1 uM assessed as cleaved PARP by Annexin V-FITC/PI staining based flow cytometry analysis; format: functional, cell-based; details: dose 0.25-1 µM
[6] = system: MOLM-13; assay: cells; details: Homo sapiens, MOLM-13, 144 h
Description: Anticancer activity against human MOLM-13 cells harbouring MLL-AF9 assessed as inhibition of cell growth treated for 6 days measured by CCK-8 kit method

[7] = system: MV4-11; assay: Anticancer activity against human MV4-11 cells assessed as inhibition of cell growth treated for 8 days measured by CCK-8 kit method; format: functional, cell-based; details: MV4-11, 192 h
[8] = system: MOLM-13; assay: Induction of apoptosis in human MOLM-13 cells at 0.25 to 1 uM assessed as cleaved Caspase-3 by Annexin V-FITC/PI staining based flow cytometry analysis; format: functional, cell-based; details: dose 0.25-1 µM
[9] = system: MOLM-13; assay: Down regulation of SSBP2 gene in human MOLM-13 cells by RNA-sequencing analysis; format: functional, cell-based
[10] = system: MOLM-13; assay: Inhibition of methylation of H3K79 in human MOLM-13 cells assessed as inhibition of methylation at HOXA1 gene cluster by chromatin immunoprecipitation assay; format: functional, cell-based
[11] = system: MOLM-13; assay: Down regulation of TUBA1B gene in human MOLM-13 cells by RNA-sequencing analysis; format: functional, cell-based
[12] = Stability in human plasma assessed as compound remaining measured upto 1440 mins by HPLC analysis; format: ADME, cell-free; details: read-out: Stability
[13] = system: MOLM-13; assay: Down regulation of ARID2 gene in human MOLM-13 cells by RNA-sequencing analysis; format: functional, cell-based
[14] = system: MOLM-13; assay: Down regulation of PBX3 gene in human MOLM-13 cells by RNA-sequencing analysis; format: functional, cell-based
[15] = target: T1, Protein AF-9 (Homo sapiens) (UniProt P42568); assay: Binding affinity to AF9 in human MOLM-13 cells assessed as thermal stabilization of protein at 60 degree Celsius at 1 uM for 12 hrs by CETSA; format: cell-based
T1 sequence (whole entry): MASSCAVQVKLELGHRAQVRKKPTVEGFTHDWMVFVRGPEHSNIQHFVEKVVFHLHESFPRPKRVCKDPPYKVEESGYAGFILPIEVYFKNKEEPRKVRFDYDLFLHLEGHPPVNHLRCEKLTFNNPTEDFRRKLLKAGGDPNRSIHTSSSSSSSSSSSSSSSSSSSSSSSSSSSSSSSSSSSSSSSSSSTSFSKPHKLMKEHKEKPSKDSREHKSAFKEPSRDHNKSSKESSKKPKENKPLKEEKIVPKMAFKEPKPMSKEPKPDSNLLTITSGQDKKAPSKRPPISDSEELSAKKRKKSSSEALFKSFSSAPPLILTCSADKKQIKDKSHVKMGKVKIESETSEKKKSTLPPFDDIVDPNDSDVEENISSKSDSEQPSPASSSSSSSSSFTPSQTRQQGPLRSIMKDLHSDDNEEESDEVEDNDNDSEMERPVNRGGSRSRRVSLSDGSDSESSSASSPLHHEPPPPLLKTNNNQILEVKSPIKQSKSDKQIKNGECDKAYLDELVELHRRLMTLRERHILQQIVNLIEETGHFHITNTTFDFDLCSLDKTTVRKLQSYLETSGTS

[16] = system: MOLM-13; assay: Down regulation of HOXA10 gene in human MOLM-13 cells by RNA-sequencing analysis; format: functional, cell-based
[17] = system: MOLM-13; assay: Inhibition of methylation of H3K79 in human MOLM-13 cells assessed as inhibition of methylation at HOXA4 gene cluster by chromatin immunoprecipitation assay; format: functional, cell-based
[18] = system: MOLM-13; assay: cells; details: Homo sapiens, MOLM-13, 96 h
Description: Anticancer activity against human MOLM-13 cells harbouring MLL-AF9 assessed as inhibition of cell growth treated for 4 days measured by CCK-8 kit method

[19] = system: MOLM-13; assay: Down regulation of DCUN1D1 gene in human MOLM-13 cells by RNA-sequencing analysis; format: functional, cell-based
[20] = system: MOLM-13; assay: Inhibition of methylation of H3K79 in human MOLM-13 cells assessed as inhibition of methylation at HOXA2 gene cluster by chromatin immunoprecipitation assay; format: functional, cell-based
[21] = system: MOLM-13; assay: Down regulation of CDKN1B gene in human MOLM-13 cells by RNA-sequencing analysis; format: functional, cell-based
[22] = system: MOLM-13; assay: Down regulation of […] gene in human MOLM-13 cells by RNA-sequencing analysis; format: functional, cell-based
[23] = system: MOLM-13; assay: Down regulation of MEF2C gene in human MOLM-13 cells by RNA-sequencing analysis; format: functional, cell-based
[24] = system: MOLM-13; assay: Inhibition of methylation of H3K79 in human MOLM-13 cells assessed as inhibition of methylation at HOXA6 gene cluster by chromatin immunoprecipitation assay; format: functional, cell-based
[25] = system: MOLM-13; assay: cells; details: Homo sapiens, MOLM-13, 192 h
Description: Anticancer activity against human MOLM-13 cells harbouring MLL-AF9 assessed as inhibition of cell growth treated for 8 days measured by CCK-8 kit method

[26] = system: KOPN-8; assay: cells; details: Homo sapiens, KOPN-8, 192 h
Description: Anticancer activity against human KOPN-8 cells harbouring MLL-ENL assessed as inhibition of cell growth treated for 8 days measured by CCK-8 kit method

[27] = system: MOLM-13; assay: Down regulation of MCM2 gene in human MOLM-13 cells by RNA-sequencing analysis; format: functional, cell-based
[28] = system: MOLM-13; assay: Down regulation of CDK1 gene in human MOLM-13 cells by RNA-sequencing analysis; format: functional, cell-based
[29] = system: MOLM-13; assay: Induction of apoptosis in human MOLM-13 cells treated for 7 days by Annexin V-FITC/PI staining based flow cytometry analysis; format: functional, cell-based; details: dose 0.25-1 µM, time 7.0 day
[30] = system: MOLM-13; assay: Inhibition of methylation of H3K79 in human MOLM-13 cells assessed as inhibition of methylation at MEIS1-AS3 gene cluster by chromatin immunoprecipitation assay; format: functional, cell-based
[31] = system: MOLM-13; assay: Inhibition of methylation of H3K79 in human MOLM-13 cells assessed as inhibition of methylation at […] gene cluster by chromatin immunoprecipitation assay; format: functional, cell-based
[32] = system: MOLM-13; assay: Down regulation of HPGD gene in human MOLM-13 cells by RNA-sequencing analysis; format: functional, cell-based
[33] = system: MOLM-13; assay: Down regulation of CDK6 gene in human MOLM-13 cells by RNA-sequencing analysis; format: functional, cell-based
[34] = target: T1, Protein AF-9 (Homo sapiens); assay: Binding affinity to AF9 in human MOLM-13 cells assessed as thermal stabilization of protein at 55 degree Celsius for 12 hrs by CETSA; format: cell-based; details: dose <= 4.0 µM, DDE = dose-dependent effect
[35] = system: MOLM-13; assay: Down regulation of GATA2 gene in human MOLM-13 cells by RNA-sequencing analysis; format: functional, cell-based
[36] = system: RS4-11; assay: Anticancer activity against human RS4-11 cells assessed as inhibition of cell growth treated for 8 days measured by CCK-8 kit method; format: functional, cell-based; details: RS4-11, 192 h
[37] = system: MOLM-13; assay: Inhibition of methylation of H3K79 in human MOLM-13 cells assessed as inhibition of methylation at HOXA13 gene cluster by chromatin immunoprecipitation assay; format: functional, cell-based
[38] = system: MOLM-13; assay: Down regulation of HOXA5 gene in human MOLM-13 cells by RNA-sequencing analysis; format: functional, cell-based

Question: For `CNC[C@H](NC(=O)[C@@H](NC(=O)[C@@H]1CCCN1C(=O)CCC(C)C)C(C)C)C(=O)N[C@@H](CC1CCCC1)C(=O)N[C@@H](C)c1nc2cccc(-c3ccccc3)c2[nH]1` ({Pentanoyl(4-Me)}-PV[Dap(Me)][Ala(cPent)]-X1), which Activity [1] is on record?
Answer: Active

Question: And the IC50 [2]?
Answer: 703 nM

Question: What about the inhibition [3] of the same compound?
Answer: Active

Question: And the Activity [4]?
Answer: Active

Question: What about the Activity [5] of the same compound?
Answer: Active

Question: What about the IC50 [6] of the same compound?
Answer: 382 nM

Question: What about the IC50 [7] of the same compound?
Answer: 220 nM

Question: What about the Activity [8] of the same compound?
Answer: Active

Question: And the Activity [9]?
Answer: Active

Question: And the inhibition [10]?
Answer: Active

Question: And the Activity [11]?
Answer: Active

Question: And the remaining at 24 h [12]?
Answer: 81.5%

Question: And the Activity [13]?
Answer: Active

Question: What about the Activity [14] of the same compound?
Answer: Active

Question: And the Activity [15]?
Answer: Active

Question: What about the Activity [16] of the same compound?
Answer: Active

Question: What about the inhibition [17] of the same compound?
Answer: Active

Question: What about the IC50 [18] of the same compound?
Answer: 972 nM

Question: And the Activity [19]?
Answer: Active

Question: And the inhibition [20]?
Answer: Active

Question: What about the Activity [21] of the same compound?
Answer: Active

Question: What about the Activity [22] of the same compound?
Answer: Active

Question: And the Activity [23]?
Answer: Active

Question: And the inhibition [24]?
Answer: Active

Question: And the IC50 [25]?
Answer: 70 nM

Question: And the IC50 [26]?
Answer: 100 nM

Question: What about the Activity [27] of the same compound?
Answer: Active

Question: And the Activity [28]?
Answer: Active

Question: What about the Activity [29] of the same compound?
Answer: Active

Question: What about the inhibition [30] of the same compound?
Answer: Active

Question: What about the inhibition [31] of the same compound?
Answer: Active

Question: What about the Activity [32] of the same compound?
Answer: Active

Question: What about the Activity [33] of the same compound?
Answer: Active

Question: And the Activity [34]?
Answer: Dde

Question: And the Activity [35]?
Answer: Active

Question: What about the IC50 [36] of the same compound?
Answer: 240 nM

Question: What about the inhibition [37] of the same compound?
Answer: Active

Question: What about the Activity [38] of the same compound?
Answer: Active

Reference: ChEMBL document CHEMBL5154930, “Design, Synthesis, and Biological Evaluations of DOT1L Peptide Mimetics Targeting the Protein-Protein Interactions between DOT1L and MLL-AF9/MLL-ENL” (J Med Chem, 2022)
